Source: patent US9944989B2, “Micrornas as new therapeutic targets for the prevention and/or treatment of retinopathy” (RUSH UNIVERSITY MEDICAL CENTER, priority 2010, dated 2018)

What was measured:
[1] = system: miRNAs in the vitreous; experiment: miRNA expression profiling (TaqMan rodent miRNA microarray) of the vitreous of STZ-induced diabetic and normal control rats; parameters: species or system rat; conditions: two weeks after the onset of diabetes, average delta Ct
Method: Isolation of vitreous RNA from STZ-induced diabetic and normal control rats: 2 weeks after STZ-induced diabetes, 3 diabetic and 3 normal control rats were sacrificed and their eyeballs harvested. In cold PBS, the eyeballs were dissected to collect the vitreous bodies, the retinas and the lens, total RNA was prepared using the mirVana miRNA isolation kit (Ambion). The yield of total RNA from vitreous body was ˜764 ng and 1125 ng total RNA/vitreous of control and diabetic rats, respectively. […]
miRNA microarray assays and data analyses. […] Three independent sets of miRNA profiling were performed for each experimental condition Amplification data were created by the SDS2.3 program (Applied Biosystems) and further analyzed using RQ Manager software (Applied Biosystems) and StatMiner v. […] There were three replicate assays for each miRNA on the array. miRNAs with Ct<40 in at least two out of the three replicates were accepted as “detected”. […] Normalized expression level of each miRNA was calculated as DCt or ΔCt=Ct(miRNA)-Ct(snRNA U6). The average DCt from three microarray assays was calculated as the relative expression level of each miRNA. The differential expression of each miRNA from samples of diabetic rats and normal controls was calculated as: DDCt or Δ(ΔCt)=Ave DCt (diabetic)—Ave DCt (control). Fold of change was calculated as 2^−Δ(ΔCt). […]

[2] = system: NF-κB activation; experiment: Thrombin-induced NF-κB downstream genes (ICAM-1, VCAM-1, MCP1) by qRT-PCR in HRECs; type: cell-based, human; conditions: thrombin treatment
Method: Thrombin-dependent NF-κB activation is mediated by the CARD10-Bc110-MALT1 signalosome. If miR-146 targets CARD10, one of the key components of the signalosome of the GPCR-mediated NF-κB activation pathway, miR-146 should have an inhibitory effect on GPCR-mediated NF-κB activation in HRECs. HRECs were transfected with miR-146a mimic or negative control oligos with scrambled sequences; 24 hour after the transfection, the cells were treated with thrombin.
To determine whether miR-146's inhibition on thrombin-mediated NF-κB activation is mediated by its repression on CARD10, HRECs were transfected with human CARD10-expressing constructs (Genecopoeia) before miR-146a mimic transfection and thrombin treatment.
(§1) Cell culture and treatment. Primary Human Retinal Endothelial Cells (HRECs) (Passage 3-6) and HEK293 cells were purchased from Applied Cell Biology Res Institute (Kirkland, Wash.) and American Type Culture Collection (ATCC), respectively. HRECs were maintained in EGM2-MV media with 5% of FBS (Lonza) in flasks coated with attachment factor (Invitrogen) or plates coated with fibronectin (Sigma). For thrombin treatment, HRECs were serum starved in EGM2-MV media with 1% FBS overnight, and then treated with thrombin (5 U/ml) (Sigma. Cat. T4393) for 5-8 hours, followed by RNA harvesting, leukocyte adhesion and other assays; for IL-1β treatment, after overnight serum starvation, HRECs was incubated with 10 ng/ml IL-1β (Sigma) for 4 hours. When NF-κB specific inhibitor Bay11-7082 was used, HRECs was incubated with Bay11-7082 (3 μM) (Sigma) for 30 minutes prior to treatment with either thrombin or IL-1β.
miR-146a mimic, anti-miR-146a and plasmid transfection. […]
RNA preparation and quantitative RT-PCR. Total RNA was prepared using miRVana miRNA isolation kit (Ambion) (Kovacs et al., 2011). qRT-PCR of miRNAs was performed using TaqMan microRNA Assays (Applied Biosystems), with snRNA U6 as normalization control. qRT-PCR of mRNAs of was performed using QuantiTect Primer Assays and QuantiFast SYBR Green RT-PCR Kit (Qiagen), with 18s rRNA as normalization control. […]

[3] = system: HRECs; experiment: Leukocyte adhesion to HRECs; type: cell-based, human; conditions: scrambled control-treated HRECs, thrombin treatment
Method: Leukocyte adhesion to HRECs. Leukocyte adhesion assays were performed (Huang et al., 2007; O'Donnell, 2011) with minor modifications. Briefly, blood from healthy human volunteers was collected according to a approved IRB protocol to isolate leukocytes. Leukocytes were labeled with 5 μM Calcein/acetomethoxy (AM) (Invitrogen). HRECs were transfected with miR-146a mimics or negative control oligo duplex with scrambled sequences for 48 hours before thrombin treatment (5 U/ml). Eight hours after thrombin treatment, 10^5 calcein-labeled leukocytes were added onto the HREC monolayer and incubated for 2 hours at 37 C. Subsequently, the cells were gently rinsed with PBS to wash off leukocytes unattached to HRECs; the number of Calcein-AM labeled neutrophils attached to HRECs were counted by fluorescence microscopy. In addition, the fluorescence from the adherent leukocytes on HRECs was measured with a Cytofluor plate reader (PreSeptive Biosystems).

[4] = system: NF-κB; experiment: Thrombin-induced miR-146a/b expression (qRT-PCR) in HRECs, with or without Bay11-7082; type: cell-based, human
From the text: miR-146 is a NF-κB-responsive miRNA, and can be induced by IL-1R/TLR mediated NF-κB activation. GPCR-mediated NF-κB activation also induces the expression of miR-146.
Upregulation of miR-146a/b by thrombin treatment is a result of NF-κB activation.
as §1
RNA preparation and quantitative RT-PCR. Total RNA was prepared using miRVana miRNA isolation kit (Ambion) (Kovacs et al., 2011). qRT-PCR of miRNAs was performed using TaqMan microRNA Assays (Applied Biosystems), with snRNA U6 as normalization control. qRT-PCR of mRNAs of was performed using QuantiTect Primer Assays and QuantiFast SYBR Green RT-PCR Kit (Qiagen), with 18s rRNA as normalization control. Two tailed t test was used to determine significance of differences.

[5] = system: human retinal endothelial cells (HRECs); experiment: Transendothelial electrical resistance (TEER) assay in HRECs; type: cell-based
Method: Transendothelial electrical resistance assay: ECs are grown as a monolayer on small gold electrodes. The transendothelial electrical resistance, which reflects endothelial barrier function and permeability, is measured using the Electric Cell-Substrate Impedance Sensor (ECIS) system.
Transendothelial electrical resistance (TEER) assay. HRECs were plated and grew as a monolayer on fibronectin-coated Electric Cell-Substrate Impedance Sensor (ECIS) electrode arrays (Applied Biophysics). 24 hours after transfection with miR-146a mimics, or negative control oligo duplex with scrambled sequences, the cells were treated with IL-1β (10 ng/ml). TEER was recorded for 20 hours before and 24 hours after addition of IL-1β using the ECIS system (Applied Biophysics) (Qiao et al., 2003, 2006; Lum et al., 2003, 2001). When Bay11-7082 was used, HRECs was incubated with Bay11-7082 ([…]) (Sigma) for 30 minutes prior to IL-1β treatment.

[6] = system: NF-κB; experiment: miR-146a expression (qRT-PCR) in rat RECs (TR-iBRB2) treated with IL-1β or TNFα, with or without Bay11-7082; type: cell-based; conditions: for miR-146a expression: rat RECs (TR-iBRB2), 10 ng/ml, four hours and 24 hours after treatment
Method: In diabetic retinas, hyperglycemia-induced increased production of ROS and proinflammatory cytokines work in concert to activate NF-κB in RECs. Both IL-1β and TNF-α are shown to activate NF-κB in RECs. Upregulation of miR-146a is a result of NF-κB activation. Rat RECs (the TR-iBRB2 cells) were treated with IL-1β (10 ng/ml) and TNF-α (10 ng/ml). […] The extent of upregulation of miR-146a was further increased from 4-hour to 24-hour treatments. […] It is noteworthy that there is a moderate, but significant increased expression of miR-146a by IL-1β in the presence of Bay11-7082, compared to non-treated negative controls.
Quantitative (q)RT-PCR. qRT-PCR analysis of miRNAs was performed using TaqMan microRNA Assays according to the manufacturer's protocol (Applied Biosystems). Approximately 8 ng of total RNA was used for each reaction. snRNA U6 was used for normalization control. qRT-PCR analysis on mRNAs of IRAK1, TRAF6, ICAM-1, and MCP-1 was performed using the QuantiTect Primer Assay with QuantiFast SYBR Green RT-PCR Kit (Qiagen, Valencia, Calif.) ˜10 ng total RNA was used in each reaction. 18S rRNA was amplified as normalization control. All data are expressed as mean±SEM. Student's t-test was used to determine significance (p<0.05).
(§2) Rat REC culture and treatment with proinflammatory factors. Rat RECs—the Transgenic-inner Blood-Retinal Barrier (Tr-iBRB) cells were kindly provided by Drs. Tetsuya Terasaki, Tohoku University, and Ken-ichi Hosoya, University of Toyama, Japan. The Tr-iBRB cells were derived from RECs of transgenic rats harboring the temperature-sensitive SV40 large T-antigen (tsA58Tg rats). At 33° C., they are immortalized and proliferate because of the expression of large T-antigen. At 37° C., they stop proliferation due to loss of large T-antigen and differentiate into authentic retinal ECs, which have spindle fiber shapes, with typical endothelial and REC-specific markers and endothelial properties and REC-specific functions. iTr-iBRB cells were expanded at 33° C. on collagen-coated (50 μg/ml) plates in complete EC culture medium (DMEM with 70 mg/L benzylpenicillin potassium, 100 mg/L streptomycin sulfate, 10% heat-inactivated FBS and endothelial-cell growth factor (ECGF) (1:100, Sigma). Glucose concentration in the medium was 5.5 mM. Approximately 100,000 cells/60 mm plate were grown in complete medium at 37° C. for 48 hours. Cells were serum starved in DMEM+0.2% FBS for 16 hours before treatment of IL-1β (10 ng/ml, Sigma), TNFα (10 ng/ml, Sigma), or NF-κB inhibitor, Bay11-7082 (3 μM. Calbiochem) for 4 or 24 hours. Subsequently, the cells were harvested for total RNA, protein lysate preparation, or immunofluorescence.

[7] = system: NF-κB p65; experiment: NF-κB activation by immunofluorescence of p65 subunit in rat RECs; type: cell-based; conditions: IL-1β or TNFα 10 ng/ml, 30 minutes after treatment
Method: as §2
Detection of NF-κB activation by immunofluorescence of p65 subunit. 30 min following cytokine treatment, cells were fixed with 4% paraformaldehyde for 20 min. After blocking with 10% normal donkey serum (NDS) in PBS for 1 hour at room temperature, cells were incubated with anti-p65 antibody (Santa Cruz) at 4° C. overnight. Cells were incubated in Alexa fluor-conjugated secondary antibody (1:400) in 3% NDS. Nuclei of the cells were labeled with Hoechst nuclear dye (1:500). Subsequently, the cells were observed under an Axioplan2 fluorescent microscope (Zeiss).

[8] = HRECs treated with scrambled oligo
[9] = Bay11-7082 3 μM for 30 minutes prior to thrombin

## mmu-miR-30c (UGUAAACAUCCUACACUCUCAGC; chemistry not fully specified)
[1]
  AVE DCt (STZ): 2.37

## thrombin
[2]; [8]
  induction of ICAM-1: ~17 fold
  induction of VCAM-1: ~95 fold
[2]; HRECs
  NF-κB downstream genes ICAM1, MCP1 and VCAM1: significantly upregulated
[3]
  leukocyte adhesion: significantly increased
[4]; thrombin treatment
  upregulation of miR-146a: 122%
  upregulation of miR-146b: 92%

## IL-1β: proinflammatory cytokine used at 10 ng/ml to activate NF-κB
[5]; IL-1β treatment
  TEER: significant decrease
[6]
  miR-146a expression: significantly upregulated
[7]
  NF-κB activation (nuclear translocation of p65): activated NF-κb

## Cc1ccc(S(=O)(=O)/C=C/C#N)cc1 [Bay11-7082]
[5]; IL-1β 10 ng/ml
  IL-1β-induced decrease of TEER: prevented
[6]; rat RECs, IL-1β 10 ng/ml, simultaneous Bay11-7082
  decrease of IL-1β-induced upregulation of miR-146a: ~81%
[6]; rat RECs, TNF-α 10 ng/ml, simultaneous Bay11-7082
  TNF-α-induced upregulation of miR-146a: completely blocked
[7]
  NF-κB activation (nuclear translocation of p65): failed to activate NF-κB
[4]; [9]
  inhibition of thrombin-induced miR-146b upregulation: at least 33%
  thrombin-induced upregulation of miR-146a: completely blocked

## TNF-α
[6]
  miR-146a expression: significantly upregulated
[7]
  NF-κB activation (nuclear translocation of p65): activated NF-κb
